Experiments:
HCT-116 cells = experiment: HCT-116 xenograft growth after intratumoral siRNA; assay type: in vivo, BALB/c nu/nu nude mice; details: HCT-116 tumours; for excised tumours versus not treated, atelocollagen only or control RNA: 18 days after the injection of siRNA; for volume of xenografts: single injection of siRNA with atelocollagen into the tumour, monitored 18 days
Procedure: We next examined the effects of TNIK on the growth of human colon cancer cells in vivo (FIG. 2). HCT-116 cells were implanted in the flank of immunodeficient mice. One week after the inoculation, siRNA against TNIK (12 or 13) mixed with atelocollagen (Takeshita, F. et al. Efficient delivery of small interfering RNA to bone-metastatic tumors by using atelocollagen in vivo. Proc Natl Acad Sci USA 102, 12177 (2005)) was injected directly into the tumours (224.5±8.9 mm^3 in size). Three days after the siRNA injection, some tumours were excised and the silencing of TNIK mRNA was confirmed by real-time PCR (FIG. 2b). The volume of xenografts was monitored for 18 days after siRNA injection (FIG. 2a). […] We observed similar regression of established tumours after a single injection of siRNA against TNIK in two other colorectal cancer cell lines, DLD1 and WiDr (FIGS. 3 and 4).
a, HCT-116 cells were inoculated into BALB/c nu/nu nude mice subcutaneously. The developed tumours were not treated, or treated with only atelocollagen, control RNA (X or IX) or siRNA against TNIK (12 or 13). The volume of tumours (n=8 per group) was monitored as indicated. #, P<0.001 (Mann-Whitney U-test); Bars, SE; N.S., not significant. b, mRNA expression of TNIK in tumours injected with siRNA (n=3 per group). c, d, Representative appearance of mice and excised tumours 18 days after the injection of siRNA. Columns indicate the average weight of excised tumours (n=8 per group). $, P<0.005 (Mann-Whitney U-test); Bars, SE.
5×10^6 HCT-116, DLD1 or WiDr cells suspended in 0.1 ml of PBS were subcutaneously inoculated into the flanks of 5-week-old female BALB/c nu/nu nude mice (SLC, Tokyo, Japan). One week later the developed tumours were treated with siRNA together with atelocollagen (AteloGene; KOKEN, Tokyo, Japan) (Takeshita, F. et al. Efficient delivery of small interfering RNA to bone-metastatic tumors by using atelocollagen in vivo. Proc Natl Acad Sci USA 102, 12177 (2005)). The final concentration of siRNA was 30 μM and that of atelocollagen was 0.5%. A 0.2-ml volume of siRNA solution was injected directly into each tumour. Tumour volume was determined as V=A×[…], where A and B represent the largest and smallest dimensions (Bergers, G et al. Effects of angiogenesis inhibitors on multistage carcinogenesis in mice. Science 284, 808 (1999)).

[1] = target: T1, human TNIK (N-terminal segment, TNIK_N) (Homo sapiens, UniProt Q9UKE5); experiment: TNIK kinase assay (mobility shift); assay type: biochemical; details: 25 μM ATP, 1 h at room temperature
T1 construct: made in house; host or cells: Sf21 insect cells (baculovirus)
T1 sequence (Q9UKE5 1-314): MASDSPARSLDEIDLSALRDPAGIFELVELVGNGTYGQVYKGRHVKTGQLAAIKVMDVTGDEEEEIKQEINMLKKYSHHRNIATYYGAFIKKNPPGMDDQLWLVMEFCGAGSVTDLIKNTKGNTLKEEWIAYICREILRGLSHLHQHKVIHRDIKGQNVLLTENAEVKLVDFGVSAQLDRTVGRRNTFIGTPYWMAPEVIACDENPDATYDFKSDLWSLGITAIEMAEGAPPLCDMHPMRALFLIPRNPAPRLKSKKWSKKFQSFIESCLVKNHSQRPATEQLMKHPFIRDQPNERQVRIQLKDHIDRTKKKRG
From the text: A cDNA encoding the N-terminal segment (TNIK_N, residues 1-314) containing the kinase domain of human TNIK (NM_015028.1) was amplified from cDNA mixture synthesized from human tissue (Biochain) by PCR using the following primers: 5′-[…]-3′ ([SEQ ID NO:1]: forward primer, the underlined nucleotides indicates the location of a EheI site); 5′-[…]-3′ ([SEQ ID NO:2]: reverse primer, the underlined nucleotides indicates the location of a NotI site). The cDNA was subcloned into baculovirus transfer vector pFastBac_GSTb that includes protease cleavage site and glutathione S-transferase purification tag (GST-tag). The plasmid was purified and the insertion of the pFastBac_GSTb-TNIK_N was confirmed by DNA sequencing. Then E. coli DH10Bac competent cells were transformed with the plasmid to prepare the recombinant bacmid according to the instructions for the Bac-to-Bac™ baculovirus expression systems (Invitrogen). The Sf9 cells were transfected with the recombinant bacmid containing pFastBac_GSTb-TNIK_N using Cellfectin Reagent (Invitrogen) in SF-900II serum free media (Invitrogen). The viral supernatant was collected from the medium 72 h after transfection. The virus was amplified three times by infecting actively growing Sf9 or Sf21 cells in Grace's insect media (Invitrogen) supplemented with 10% FCS and an antibiotic-antimycotic reagent (Invitrogen) for 72 h at 27° C. in T-flask or roller bottles. The titer of amplified TNIK_N virus was estimated at 2.36×10^8 pfu/ml by using BacPAK™ Baculovirus Rapid Titer kit (Clontech).
Log-phase Sf21 cells (2×10^6 cells/ml) in the Grace's insect media were infected with the recombinant baculovirus at MOI of 3.0 and incubated in roller bottles (250 ml media per bottle) for 72 h at 27° C., after which, the cells were collected by centrifugation, and the cell pellet washed with cold PBS and kept at −80° C. until purification. The following purification procedures were carried out at 4° C. The frozen cells were thawed on ice and lysed in lysis buffer (50 mM Tris-HCl, pH 7.5, 150 mM NaCl, 1% Nonidet P-40, 5 mM DTT, 0.5 mM EDTA, 0.5 mM EGTA) supplemented with 1 mM phenylmethansulfonylfluoride, 2 μg/ml leupeptin, 2 μg/ml aprotinin, 1 mM NaF, 100 μM sodium orthovanadate, and 1 μM cantharidin by sonication. The suspended lysate was cleared by centrifugation at 9000 g for 20 min and the supernatant was incubated for 1 h with glutathione Sepharose beads (GE Healthcare). The beads were suspended in buffer-H (50 mM Tris-HCl, pH 7.5, 1 M NaCl, 1 mM DTT, 0.5 mM EDTA, 0.5 mM EGTA and 0.05% Brij35) and washed with buffer-H followed by buffer-L (50 mM Tris-HCl, pH 7.5, 150 mM NaCl, 1 mM DTT, 0.5 mM EDTA, 0.5 mM EGTA, 0.05% Brij35) in an Econo-pack column (BIO-RAD). The bound TNIK_N was eluted with elution buffer (50 mM Tris-HCl, pH 8.0, 150 mM NaCl, 1 mM DTT, 10% glycerol, 0.5 mM EDTA, 0.5 mM EGTA and 5 mM reduced glutathione). The eluted fractions were collected and determined the protein concentration by Bradford reagent (BIO-RAD). The TNIK_N fractions were pooled and desalted using 10DG column (BIORAD) equilibrated with the storage buffer (50 mM Tris-HCl, pH 7.5, 150 mM NaCl, 1 mM DTT, 10% glycerol, 0.05% Brij35). The purified TNIK_N was characterized by electrophoresis using 4-20% polyacrylamide gels and matrix-assisted laser desorption/ionization reflection time-of-flight (MALDI-TOF) mass spectrometry on a Voyager-DE RP MALDI/TOF (Applied Biosystems). TNIK_N was confirmed by the molecular weight and MASCOT Peptide Mass Fingerprint.
The kinase assays were conducted in a 20 μl volume using 384-well plates (Greiner). The reaction mixture consists of compound or vehicle (1% DMSO), 0.08 ng/μl TNIK_N, 1 μM FITC-labeled substrate peptides, FITC-x-Lys-Tyr-Lys-Thr-Leu-Arg-Gln ([SEQ ID NO.3], x: ε-aminocaproic acid), 20 mM Hepes, pH 7.5, 0.01% Triton X-100, 5 mM MgCl2, 25 μM ATP and 2 mM DTT. As blank, TNIK_N was excluded from the reaction mixture of vehicle (1% DMSO). […]

Compound	excised tumours versus not treated, atelocollagen only or control RNA (HCT-116 cells)	volume of xenografts (HCT-116 cells)	IC50 [1]
siRNA against TNIK (13): small interfering RNA against TNIK, sense 5′-GACCGAAGCUCUUGGUUACUU-3′, synthesized by Dharmacon (antisense GUAACCAAGAGCUUCGGUCUU; listed as RNA, chemistry not given here)	significantly smaller	regressed almost completely	–
siRNA against TNIK (12): small interfering RNA against TNIK, sense 5′-CGACAUACCCAGACUGAUAUU-3′, synthesized by Dharmacon (antisense UAUCAGUCUGGGUAUGUCGUU; listed as RNA, chemistry not given here)	significantly smaller	regressed almost completely	–
NC(=O)c1nc(Nc2ccccc2)sc1NC(=O)Cc1cccs1 [Compound 6, 2-(phenylamino)-5-(2-(thiophen-2-yl)acetamido)thiazole-4-carboxamide]	–	–	280 nM
CCNc1nc(C(N)=O)c(NC(=O)c2cc(-c3ccccc3)nc3c(C)cccc23)s1 [Compound 17, 2-(ethylamino)-5-(8-methyl-2-phenylquinoline-4-carboxamido)thiazole-4-carboxamide]	–	–	3100 nM
COCCNc1ccc(C(=O)Nc2sc(Nc3ccc(OC)cc3)nc2C(N)=O)cc1 [Compound A31, 5-[4-(2-methoxyethylamino)benzamido]-2-(4-methoxyphenylamino)thiazole-4-carboxamide]	–	–	10 nM
COc1ccc(Nc2nc(C(N)=O)c(NC(=O)c3ccc(N(S(C)(=O)=O)S(C)(=O)=O)cc3)s2)cc1 [Compound A48, 2-(4-methoxyphenylamino)-5-{4-[N-(methyl-sulfonyl)methylsulfonamido]benzamido} thiazole-4-carboxamide]	–	–	6 nM
Cc1ccc(Nc2nc(C(N)=O)c(NC(=O)c3c(F)cccc3F)s2)cc1 [Compound 13, 2-(p-toluidino)-5-(2,6-difluorobenzamido)thiazole-4-carboxamide]	–	–	180 nM
CN1CCN(c2ccc(C(=O)Nc3sc(Nc4cccnc4)nc3C(N)=O)cc2)CC1 [Compound A74, 5-[4-(4-methylpiperazin-1-yl)benzamido]-2-(pyridin-3-ylamino)thiazole-4-carboxamide]	–	–	7 nM
COc1ccc(C(=O)Nc2sc(Nc3ccncc3)nc2C(N)=O)cc1 [Compound A47, 5-(4-methoxybenzamido)-2-(pyridin-4-ylamino) thiazole-4-carboxamide]	–	–	3 nM
CC(=O)Nc1ccc(C(=O)Nc2sc(Nc3ccc(N)cc3)nc2C(N)=O)cc1 [Compound A19, 5-(4-acetamidobenzamido)-2-(4-aminophenyl-amino)thiazole-4-carboxamide]	–	–	24 nM
Cc1ccc(Nc2nc(C(N)=O)c(NC(=O)c3ccccc3F)s2)cc1 [Compound 9, 2-(p-toluidino)-5-(2-fluorobenzamido)thiazole-4-carboxamide]	–	–	68 nM
COc1ccc(Nc2nc(C(N)=O)c(NC(=O)c3ccc(CN4CCN(C)CC4)cc3)s2)cc1 [Compound A44]	–	–	11 nM
COc1ccc(Nc2nc(C(N)=O)c(NC(=O)c3ccc(NCCN4CCCCC4)cc3)s2)cc1 [Compound A49, 2-(4-methoxyphenylamino)-5-{4-[2-(piperidin-1-yl)ethylamino]benzamido}thiazole-4-carboxamide]	–	–	5 nM
NC(=O)c1nc(Nc2ccccc2)sc1NC(=O)CC1CCCC1 [Compound 8, 5-(2-cyclopentylacetamido)-2-(phenylamino)thiazole-4-carboxamide]	–	–	130 nM
COc1ccc(C(=O)Nc2sc(Nc3ccc(CO)cc3)nc2C(N)=O)cc1 [Compound A102, 2-[4-(hydroxymethyl)phenylamino]-5-(4-methoxy-benzamido)thiazole-4-carboxamide]	–	–	6 nM
COc1ccc(C(=O)Nc2sc(Nc3ccnc(F)c3)nc2C(N)=O)cc1 [Compound A92, 2-(2-fluoropyridin-4-ylamino)-5-(4-methoxy-benzamido)thiazole-4-carboxamide]	–	–	3 nM
CC(=O)Nc1ccc(C(=O)Nc2sc(Nc3cccnc3)nc2C(N)=O)cc1 [Compound A20, 5-(4-acetamidobenzamido)-2-(pyridin-3-ylamino) thiazole-4-carboxamide]	–	–	9 nM
COc1ccc(Nc2nc(C(N)=O)c(NC(=O)c3ccc(OCCN4CCCC4)cc3)s2)cc1 [Compound A45, 2-(4-methoxyphenylamino)-5-{4-[2-(pyrrolidin-1-yl)ethoxy]benzamido}thiazole-4-carboxamide]	–	–	22 nM
